Test results taken from patent US10667478B1, “Metribuzin tolerance alleles in soybean” (Syngenta Participations AG, priority 2017, dated 2020).

Test system: Soybean
Assay: Metribuzin phytotoxicity screen of soybean lines in greenhouse pots
Type: in vivo, Glycine max
Conditions: applied after planting, scored 16 days later
Description: In the case of a visual metribuzin sensitivity detection system, a plant is rated for the percent of visual toxicity compared to a control plant which is sensitive to metribuzin.
Soybean seeds were planted two seeds per pot in two inch pots with clay loam soil (1.36 o.m.). Six replications were arranged in a Randomized Complete Block Design in a greenhouse. Metribuzin was applied at 560 grams active ingredient per hectare after planting. Sixteen days later plants were scored for visual phytotoxicity scored as percent injury.

CSc1nnc(C(C)(C)C)c(=O)n1N [Metribuzin, metribuzin]
Injury (%) @ 560 g ai/ha (soybean line A1036478): 0% | Injury (%) @ 560 g ai/ha (soybean line AR1111926): 20% | Injury (%) @ 560 g ai/ha (soybean line AR1112922): 0% | Injury (%) @ 560 g ai/ha (soybean line AR1210100): 15% | Injury (%) @ 560 g ai/ha (soybean line AR1210104): 45% | Injury (%) @ 560 g ai/ha (soybean line AR1210856): 9% | Injury (%) @ 560 g ai/ha (soybean line AR1210886): 0% | Injury (%) @ 560 g ai/ha (soybean line AR1211262): 0% | Injury (%) @ 560 g ai/ha (soybean line AR1211948): 44% | Injury (%) @ 560 g ai/ha (soybean line BK1011572): 23% | Injury (%) @ 560 g ai/ha (soybean line BK1211980): 17% | Injury (%) @ 560 g ai/ha (soybean line BY1210428): 54% | Injury (%) @ 560 g ai/ha (soybean line BY1211100): 49% | Injury (%) @ 560 g ai/ha (soybean line BY1212083): 0% | Injury (%) @ 560 g ai/ha (soybean line BY1212201): 3% | Injury (%) @ 560 g ai/ha (soybean line BY1212223): 0% | Injury (%) @ 560 g ai/ha (soybean line BY1213080): 0% | Injury (%) @ 560 g ai/ha (soybean line CC1210319): 0% | Injury (%) @ 560 g ai/ha (soybean line CC1211481): 12% | Injury (%) @ 560 g ai/ha (soybean line CC1211818): 0% | Injury (%) @ 560 g ai/ha (soybean line CC1212005): 35% | Injury (%) @ 560 g ai/ha (soybean line CC1215412): 0% | Injury (%) @ 560 g ai/ha (soybean line CC1215903): 0% | Injury (%) @ 560 g ai/ha (soybean line CC1215927): 45% | Injury (%) @ 560 g ai/ha (soybean line CC1217018): 0% | Injury (%) @ 560 g ai/ha (soybean line CC1217019): 0% | Injury (%) @ 560 g ai/ha (soybean line CE1210923): 0% | Injury (%) @ 560 g ai/ha (soybean line CE1210997): 0% | Injury (%) @ 560 g ai/ha (soybean line CE1211033): 37% | Injury (%) @ 560 g ai/ha (soybean line CE1211109): 0% | Injury (%) @ 560 g ai/ha (soybean line CE1211211): 14% | Injury (%) @ 560 g ai/ha (soybean line CE1211264): 28% | Injury (%) @ 560 g ai/ha (soybean line CE1211339): 0% | Injury (%) @ 560 g ai/ha (soybean line CE1211377): 0% | Injury (%) @ 560 g ai/ha (soybean line CE1211403): 0% | Injury (%) @ 560 g ai/ha (soybean line CE1211693): 0% | Injury (%) @ 560 g ai/ha (soybean line CE1212024): 0% | Injury (%) @ 560 g ai/ha (soybean line CE1213779): 38% | Injury (%) @ 560 g ai/ha (soybean line CE1214014): 47% | Injury (%) @ 560 g ai/ha (soybean line CE1214443): 0% | Injury (%) @ 560 g ai/ha (soybean line CE1214602): 0% | Injury (%) @ 560 g ai/ha (soybean line CE1214610): 47% | Injury (%) @ 560 g ai/ha (soybean line G01010146): 0% | Injury (%) @ 560 g ai/ha (soybean line GO1110272): 54% | Injury (%) @ 560 g ai/ha (soybean line GO1110602): 53% | Injury (%) @ 560 g ai/ha (soybean line LL511): 92% | Injury (%) @ 560 g ai/ha (soybean line LL513N): 2% | Injury (%) @ 560 g ai/ha (soybean line LL563N): 5% | Injury (%) @ 560 g ai/ha (soybean line LL595N): 96% | Injury (%) @ 560 g ai/ha (soybean line NE0912640): 0% | Injury (%) @ 560 g ai/ha (soybean line NE1212391): 0% | Injury (%) @ 560 g ai/ha (soybean line NE1214412): 5% | Injury (%) @ 560 g ai/ha (soybean line NE1214737): 0% | Injury (%) @ 560 g ai/ha (soybean line NE1215099): 0% | Injury (%) @ 560 g ai/ha (soybean line OW1011073): 11% | Injury (%) @ 560 g ai/ha (soybean line OW1011829): 50% | Injury (%) @ 560 g ai/ha (soybean line OW1012353): 17% | Injury (%) @ 560 g ai/ha (soybean line OW1113014): 34% | Injury (%) @ 560 g ai/ha (soybean line OW1210742): 45% | Injury (%) @ 560 g ai/ha (soybean line OW1212626): 25% | Injury (%) @ 560 g ai/ha (soybean line OW1213195): 28% | Injury (%) @ 560 g ai/ha (soybean line OW1213207): 28% | Injury (%) @ 560 g ai/ha (soybean line OW1213282): 23% | Injury (%) @ 560 g ai/ha (soybean line OW1213323): 42% | Injury (%) @ 560 g ai/ha (soybean line S77-T7): 23% | Injury (%) @ 560 g ai/ha (soybean line S78-G6): 10% | Injury (%) @ 560 g ai/ha (soybean line SJ1114205): 0% | Injury (%) @ 560 g ai/ha (soybean line SJ1210059): 0% | Injury (%) @ 560 g ai/ha (soybean line SJ1210512): 11% | Injury (%) @ 560 g ai/ha (soybean line SJ1210526): 0% | Injury (%) @ 560 g ai/ha (soybean line SJ1210678): 0% | Injury (%) @ 560 g ai/ha (soybean line SJ1210829): 0% | Injury (%) @ 560 g ai/ha (soybean line SJ1210844): 0% | Injury (%) @ 560 g ai/ha (soybean line SJ1210862): 0% | Injury (%) @ 560 g ai/ha (soybean line SJ1210867): 25% | Injury (%) @ 560 g ai/ha (soybean line SJ1211190): 55% | Injury (%) @ 560 g ai/ha (soybean line SJ1212283): 0% | Injury (%) @ 560 g ai/ha (soybean line SJ1213014): 0% | Injury (%) @ 560 g ai/ha (soybean line SJ1213512): 0% | Injury (%) @ 560 g ai/ha (soybean line SJ1213805): 48% | Injury (%) @ 560 g ai/ha (soybean line WN1116259): 0% | Injury (%) @ 560 g ai/ha (soybean line WN1118256): 47% | Injury (%) @ 560 g ai/ha (soybean line WN1118297): 0%
